Data from patent publication US9302999B2, “Substituted triazoles as herbicides” (E. I. DU PONT DE NEMOURS AND COMPANY, priority 2012, dated 2016).

What was measured:
Format in all cases: in vivo
[1] = test system: large crabgrass (Digitaria sanguinalis); test: Test C pre-/postemergence: large crabgrass
How it was run: (§1)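 Visual injury scored 0–100 (100 = complete control) against untreated controls after 13–15 greenhouse days. Surfactant-containing solvent formulations applied either to soil after sowing (loam/sand) or over 1- to 4-leaf plants, 2–18 cm tall.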

[2] = test system: galium (catchweed bedstraw, Galium aparine); test: Test C pre-/postemergence: galium
How it was run: as §1

[3] = test system: velvetleaf (Abutilon theophrasti); test: Test A pre-/postemergence: velvetleaf
How it was run: (§2)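 Compounds, formulated with surfactant in non-phytotoxic solvent, were applied as a directed soil spray preemergence and as postemergence sprays to 2–10 cm, one- to two-leaf seedlings grown in loam soil blended with sand; visual injury, 0–100, assessed ~10 days post-treatment against untreated controls.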

[4] = test system: corn (Zea mays); test: Test A pre-/postemergence: corn
How it was run: as §2

[5] = test system: crabgrass, large (large crabgrass, Digitaria sanguinalis); test: Test A pre-/postemergence: crabgrass, large
How it was run: as §2

[6] = test system: pigweed (Amaranthus retroflexus); test: Test C pre-/postemergence: pigweed
How it was run: as §1

[7] = test system: ragweed (common ragweed, Ambrosia elation); test: Test C pre-/postemergence: ragweed
How it was run: as §1

[8] = test system: blackgrass (Alopecurus myosuroides); test: Test C pre-/postemergence: blackgrass
How it was run: as §1

[9] = test system: ryegrass, Italian (Italian ryegrass, Lolium multiflorum); test: Test C pre-/postemergence: ryegrass, Italian
How it was run: as §1

[10] = test system: kochia (Kochia scoparia); test: Test C pre-/postemergence: kochia
How it was run: as §1

[11] = test system: soybean (Glycine max); test: Test C pre-/postemergence: soybean
How it was run: as §1

[12] = test system: foxtail, giant (giant foxtail, Setaria faberii); test: Test C pre-/postemergence: foxtail, giant
How it was run: as §1

[13] = Postemergence, 31 g ai/ha, scale 0 to 100 (0 no effect, 100 complete control)
[14] = Postemergence, 62 g ai/ha, scale 0 to 100 (0 no effect, 100 complete control)
[15] = Postemergence, 125 g ai/ha, scale 0 to 100, 0 no effect, 100 complete control
[16] = Postemergence, 250 g ai/ha, scale 0 to 100
[17] = Preemergence, 31 g ai/ha, scale 0 (no effect) to 100 (complete control)
[18] = Preemergence, 62 g ai/ha, scale of 0 to 100, 0 is no effect, 100 is complete control
[19] = Preemergence, 125 g ai/ha, scale 0 to 100, 0 no effect, 100 complete control
[20] = Preemergence, 250 g ai/ha, scale 0 to 100, 0 no effect, 100 complete control
[21] = Postemergence, 250 g ai/ha, scale 0 to 100 (0 no effect, 100 complete control)
[22] = Postemergence, 125 g ai/ha, 0 to 100 scale, 0 is no effect, 100 is complete control
[23] = Postemergence, 500 g ai/ha, 0 to 100 scale, 0 is no effect, 100 is complete control
[24] = Preemergence, 125 g ai/ha, 0 to 100 scale where 0 is no effect and 100 is complete control
[25] = Preemergence, 500 g ai/ha, 0 to 100 scale (0 no effect, 100 complete control)

SMILES: CCCc1nn(-c2ccc(C(F)(F)F)c(F)c2)nc1Oc1ccnc(C(F)(F)F)c1 [Compound 185]
- Plant response rating, Crabgrass, Large [1, 13]: 25
- Plant response rating, Crabgrass, Large [1, 14]: 40
- Plant response rating, Crabgrass, Large [1, 15]: 60
- Plant response rating, Crabgrass, Large [1, 16]: 80
- Plant response rating, Crabgrass, Large [1, 17]: 100
- Plant response rating, Crabgrass, Large [1, 18]: 100
- Plant response rating, Crabgrass, Large [1, 19]: 100
- Plant response rating, Crabgrass, Large [1, 20]: 100
- Plant response rating, Galium [2, 13]: 70
- Plant response rating, Galium [2, 14]: 80
- Plant response rating, Galium [2, 15]: 90
- Plant response rating, Galium [2, 21]: 90
- Plant response rating, Galium [2, 17]: 80
- Plant response rating, Galium [2, 18]: 100
- Plant response rating, Galium [2, 19]: 100
- Plant response rating, Galium [2, 20]: 100
- Plant response rating, Velvetleaf [3, 22]: 100
- Velvetleaf plant response rating [3, 23]: 100
- Plant response rating, Velvetleaf [3, 24]: 90
- Plant response rating, Velvetleaf [3, 25]: 100
- Plant response rating, Corn [4, 22]: 20
- Corn plant response rating [4, 23]: 50
- Plant response rating, Corn [4, 24]: 10
- Plant response rating, Corn [4, 25]: 30
- Plant response rating, Crabgrass, Large [5, 22]: 90
- Crabgrass, Large plant response rating [5, 23]: 90
- Plant response rating, Crabgrass, Large [5, 24]: 100
- Plant response rating, Crabgrass, Large [5, 25]: 100
- Plant response rating, Pigweed [6, 13]: 98
- Plant response rating, Pigweed [6, 14]: 98
- Plant response rating, Pigweed [6, 15]: 100
- Plant response rating, Pigweed [6, 21]: 100
- Plant response rating, Pigweed [6, 17]: 100
- Plant response rating, Pigweed [6, 18]: 100
- Plant response rating, Pigweed [6, 19]: 100
- Plant response rating, Pigweed [6, 20]: 100
- Plant response rating, Ragweed [7, 13]: 75
- Plant response rating, Ragweed [7, 14]: 90
- Plant response rating, Ragweed [7, 15]: 95
- Plant response rating, Ragweed [7, 21]: 95
- Plant response rating, Ragweed [7, 17]: 40
- Plant response rating, Ragweed [7, 18]: 80
- Plant response rating, Ragweed [7, 19]: 95
- Plant response rating, Ragweed [7, 20]: 95
- Plant response rating, Blackgrass [8, 13]: 20
- Plant response rating, Blackgrass [8, 14]: 40
- Plant response rating, Blackgrass [8, 15]: 50
- Plant response rating, Blackgrass [8, 16]: 50
- Plant response rating, Blackgrass [8, 17]: 90
- Plant response rating, Blackgrass [8, 18]: 95
- Plant response rating, Blackgrass [8, 19]: 95
- Plant response rating, Blackgrass [8, 20]: 98
- Plant response rating, Ryegrass, Italian [9, 13]: 10
- Plant response rating, Ryegrass, Italian [9, 14]: 10
- Plant response rating, Ryegrass, Italian [9, 15]: 25
- Plant response rating, Ryegrass, Italian [9, 21]: 35
- Plant response rating, Ryegrass, Italian [9, 17]: 90
- Plant response rating, Ryegrass, Italian [9, 18]: 100
- Plant response rating, Ryegrass, Italian [9, 19]: 100
- Plant response rating, Ryegrass, Italian [9, 20]: 100
- Plant response rating, Kochia [10, 13]: 90
- Plant response rating, Kochia [10, 14]: 90
- Plant response rating, Kochia [10, 15]: 90
- Plant response rating, Kochia [10, 21]: 90
- Plant response rating, Soybean [11, 13]: 40
- Plant response rating, Soybean [11, 14]: 45
- Plant response rating, Soybean [11, 15]: 45
- Plant response rating, Soybean [11, 21]: 55
- Plant response rating, Soybean [11, 17]: 5
- Plant response rating, Soybean [11, 18]: 10
- Plant response rating, Soybean [11, 19]: 40
- Plant response rating, Soybean [11, 20]: 40
- Plant response rating, Foxtail, Giant [12, 13]: 40
- Plant response rating, Foxtail, Giant [12, 14]: 80
- Plant response rating, Foxtail, Giant [12, 15]: 90
- Plant response rating, Foxtail, Giant [12, 16]: 98
- Plant response rating, Foxtail, Giant [12, 17]: 100
- Plant response rating, Foxtail, Giant [12, 18]: 100
- Plant response rating, Foxtail, Giant [12, 19]: 100
- Plant response rating, Foxtail, Giant [12, 20]: 100

SMILES: CCOc1nn(-c2ccc(F)cc2)nc1Cc1ccnc(C(F)F)c1 [Compound 195]
- Plant response rating, Crabgrass, Large [1, 13]: 55
- Plant response rating, Crabgrass, Large [1, 14]: 60
- Plant response rating, Crabgrass, Large [1, 15]: 90
- Plant response rating, Crabgrass, Large [1, 16]: 95
- Plant response rating, Crabgrass, Large [1, 17]: 98
- Plant response rating, Crabgrass, Large [1, 18]: 100
- Plant response rating, Crabgrass, Large [1, 19]: 100
- Plant response rating, Crabgrass, Large [1, 20]: 100
- Plant response rating, Galium [2, 13]: 80
- Plant response rating, Galium [2, 14]: 95
- Plant response rating, Galium [2, 15]: 95
- Plant response rating, Galium [2, 21]: 95
- Plant response rating, Galium [2, 17]: 10
- Plant response rating, Galium [2, 18]: 80
- Plant response rating, Galium [2, 19]: 90
- Plant response rating, Galium [2, 20]: 95
- Plant response rating, Velvetleaf [3, 22]: 90
- Velvetleaf plant response rating [3, 23]: 100
- Plant response rating, Velvetleaf [3, 24]: 70
- Plant response rating, Velvetleaf [3, 25]: 80
- Plant response rating, Corn [4, 22]: 30
- Corn plant response rating [4, 23]: 60
- Plant response rating, Corn [4, 24]: 20
- Plant response rating, Corn [4, 25]: 30
- Plant response rating, Crabgrass, Large [5, 22]: 90
- Crabgrass, Large plant response rating [5, 23]: 90
- Plant response rating, Crabgrass, Large [5, 24]: 100
- Plant response rating, Crabgrass, Large [5, 25]: 100
- Plant response rating, Pigweed [6, 13]: 95
- Plant response rating, Pigweed [6, 14]: 95
- Plant response rating, Pigweed [6, 15]: 98
- Plant response rating, Pigweed [6, 21]: 98
- Plant response rating, Pigweed [6, 17]: 98
- Plant response rating, Pigweed [6, 18]: 98
- Plant response rating, Pigweed [6, 19]: 100
- Plant response rating, Pigweed [6, 20]: 100
- Plant response rating, Ragweed [7, 14]: 50
- Plant response rating, Ragweed [7, 15]: 70
- Plant response rating, Ragweed [7, 21]: 85
- Plant response rating, Ragweed [7, 17]: 15
- Plant response rating, Ragweed [7, 18]: 20
- Plant response rating, Ragweed [7, 19]: 20
- Plant response rating, Ragweed [7, 20]: 55
- Plant response rating, Blackgrass [8, 13]: 45
- Plant response rating, Blackgrass [8, 14]: 70
- Plant response rating, Blackgrass [8, 15]: 80
- Plant response rating, Blackgrass [8, 16]: 80
- Plant response rating, Blackgrass [8, 17]: 90
- Plant response rating, Blackgrass [8, 18]: 90
- Plant response rating, Blackgrass [8, 19]: 90
- Plant response rating, Blackgrass [8, 20]: 90
- Plant response rating, Ryegrass, Italian [9, 13]: 25
- Plant response rating, Ryegrass, Italian [9, 14]: 55
- Plant response rating, Ryegrass, Italian [9, 15]: 60
- Plant response rating, Ryegrass, Italian [9, 21]: 60
- Plant response rating, Ryegrass, Italian [9, 17]: 50
- Plant response rating, Ryegrass, Italian [9, 18]: 80
- Plant response rating, Ryegrass, Italian [9, 19]: 90
- Plant response rating, Ryegrass, Italian [9, 20]: 90
- Plant response rating, Kochia [10, 13]: 75
- Plant response rating, Kochia [10, 14]: 85
- Plant response rating, Kochia [10, 15]: 90
- Plant response rating, Kochia [10, 21]: 95
- Plant response rating, Kochia [10, 17]: 60
- Plant response rating, Kochia [10, 18]: 75
- Plant response rating, Kochia [10, 20]: 95
- Plant response rating, Soybean [11, 13]: 40
- Plant response rating, Soybean [11, 14]: 40
- Plant response rating, Soybean [11, 15]: 65
- Plant response rating, Soybean [11, 21]: 65
- Plant response rating, Soybean [11, 17]: 0
- Plant response rating, Soybean [11, 18]: 0
- Plant response rating, Soybean [11, 19]: 0
- Plant response rating, Soybean [11, 20]: 25
- Plant response rating, Foxtail, Giant [12, 13]: 35
- Plant response rating, Foxtail, Giant [12, 14]: 35
- Plant response rating, Foxtail, Giant [12, 15]: 75
- Plant response rating, Foxtail, Giant [12, 16]: 90
- Plant response rating, Foxtail, Giant [12, 17]: 98
- Plant response rating, Foxtail, Giant [12, 18]: 98
- Plant response rating, Foxtail, Giant [12, 19]: 100
- Plant response rating, Foxtail, Giant [12, 20]: 100
